Several values for one entry are separate records, joined by “and”; a condition that tells them apart may be missing. Equal entries are not always repeated.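 Compound exposure: 48 hours, 5 concentrations, 96-well plates. The concentration for 50% growth inhibition is given as GI50. TGI: total growth inhibition.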
Tests used:
Test in all cases: inhibition of tumour cell growth, NCI panel, 48 h
[1] = system: SN12C renal
[2] = system: SK-OV-3 ovarian
[3] = system: HOP-62 NSCLC
[4] = system: CCRF-CEM leukemia
[5] = system: 786-0 renal
[6] = system: MDA-MB-435
[7] = system: OVCAR-8 ovarian
[8] = system: SF-268 CNS
[9] = system: SK-MEL-28 melanoma
[10] = system: KM12 colon
[11] = system: LOX IMVI melanoma
[12] = system: SW-620 colon
[13] = system: RPMI-8226 leukemia
[14] = system: K-562 leukemia
[15] = system: SR leukemia
[16] = system: HCT-15 colon
[17] = system: M14 melanoma
[18] = system: HOP-92 NSCLC
[19] = system: EKVX NSCLC
[20] = system: SK-MEL-2 melanoma
[21] = system: IGROV1 ovarian
[22] = system: NCI-H522 lung
[23] = system: NCI/ADR-RES ovarian
[24] = system: MCF7 breast
[25] = system: CAKI-1 renal
[26] = system: A549 NSCLC
[27] = system: UACC-257 melanoma
[28] = system: HCC-2998 colon
[29] = system: NCI-H460 lung
[30] = system: ACHN renal
[31] = system: HL-60(TB) leukemia
[32] = system: MDA-MB-231 breast
[33] = system: OVCAR-5 ovarian
[34] = system: RXF 393 renal
[35] = system: HCT-116 colon
[36] = system: UACC-62 melanoma
[37] = system: SK-MEL-5 melanoma
[38] = system: MDA-MB-468 breast
[39] = system: BT-549 breast
[40] = system: HS 578T breast
[41] = system: DU-145 prostate
[42] = system: NCI-H226 lung
[43] = system: A498 renal
[44] = system: U251 CNS
[45] = system: UO-31 renal
[46] = system: MOLT-4 leukemia
[47] = system: SF-539 CNS
[48] = system: OVCAR-3 ovarian
[49] = system: PC-3 prostate
[50] = system: SNB-75 CNS
[51] = system: OVCAR-4 ovarian
[52] = system: COLO 205 colon
[53] = system: SF-295 CNS
[54] = system: NCI-H23 lung
[55] = system: TK-10 renal
[56] = system: MALME-3M melanoma
[57] = system: T-47D breast
[58] = system: SNB-19 CNS
[59] = system: HT29 colon

## COc1cc2cc(C(=O)N3C[C@@H](CCl)c4c3cc(OC(=O)N(CCC(=O)N3CCN(C)CC3)[C@H]3CCSSC3)c3ccccc43)[nH]c2c(OC)c1OC
[1]
  GI50: 241 nM and 286 nM
[2]
  GI50: 313 nM and 262 nM
  TGI: 1310 nM and 714 nM
[3]
  GI50: 166 nM and 110 nM
  TGI: 1280 nM and 780 nM
[4]
  GI50: 559 nM and 219 nM
[5]
  GI50: 368 nM
  TGI: 1340 nM
[6]
  GI50: 404 nM and 213 nM
  TGI: 788 nM and 529 nM
[7]
  GI50: 275 nM and 186 nM
[8]
  GI50: 403 nM and 187 nM
[9]
  GI50: 413 nM and 293 nM
  TGI: 846 nM and 826 nM
[10]
  GI50: 535 nM and 268 nM
  TGI: 1640 nM and 1050 nM
[11]
  GI50: 295 nM and 208 nM
  TGI: 781 nM and 891 nM
[12]
  GI50: 399 nM and 221 nM
  TGI: 1900 nM and 911 nM
[13]
  GI50: 477 nM and 222 nM
  TGI: 1850 nM and 1360 nM
[14]
  GI50: 604 nM and 162 nM
  TGI: 25000 nM and > 100000 nM
[15]
  GI50: 56.7 nM and 34.2 nM
[16]
  GI50: 271 nM and 260 nM
  TGI: 1110 nM and 1430 nM
[17]
  GI50: 317 nM and 192 nM
  TGI: 824 nM and 545 nM
[18]
  GI50: 657 nM and 346 nM
  TGI: 2130 nM and 1830 nM
[19]
  GI50: 365 nM and 315 nM
  TGI: 1040 nM and 1900 nM
[20]
  GI50: 417 nM and 214 nM
  TGI: 777 nM and 381 nM
[21]
  GI50: 436 nM and 501 nM
[22]
  GI50: 433 nM and 263 nM
  TGI: 1110 nM and 979 nM
[23]
  GI50: 292 nM
  TGI: 940 nM
[24]
  GI50: 55.7 nM and 35.3 nM
  TGI: 652 nM and 1100 nM
[25]
  GI50: 272 nM
  TGI: 4490 nM
[26]
  GI50: 393 nM
  TGI: 1630 nM
[27]
  GI50: 475 nM and 630 nM
  TGI: 1150 nM and 3710 nM
[28]
  GI50: 154 nM and 158 nM
  TGI: 579 nM and 331 nM
[29]
  GI50: 99.6 nM and 55.7 nM
  TGI: 2580 nM and 341 nM
[30]
  GI50: 83.1 nM
  TGI: 571 nM
[31]
  GI50: 325 nM and 119 nM
  TGI: 2790 nM and 952 nM
[32]
  GI50: 516 nM and 579 nM
  TGI: 1140 nM and 8190 nM
[33]
  GI50: 560 nM
  TGI: 1750 nM
[34]
  GI50: 322 nM and 149 nM
  TGI: 724 nM and 297 nM
[35]
  GI50: 389 nM and 158 nM
  TGI: 3620 nM and 558 nM
[36]
  GI50: 259 nM and 271 nM
  TGI: 587 nM and 1220 nM
[37]
  GI50: 327 nM
  TGI: 656 nM
[38]
  GI50: 167 nM
  TGI: 389 nM
[39]
  GI50: 361 nM and 228 nM
  TGI: 799 nM and 989 nM
[40]
  GI50: 689 nM and 1410 nM
  TGI: 3920 nM and 6080 nM
[41]
  GI50: 113 nM and 58.5 nM
  TGI: 3390 nM and 1490 nM
[42]
  GI50: 1570 nM and 435 nM
  TGI: 25000 nM and 4470 nM
[43]
  GI50: 251 nM
  TGI: 541 nM
[44]
  GI50: 299 nM and 164 nM
  TGI: 2800 nM and 423 nM
[45]
  GI50: 333 nM and 221 nM
  TGI: 948 nM and 545 nM
[46]
  GI50: 113 nM and 89.7 nM
[47]
  GI50: 284 nM and 167 nM
  TGI: 642 nM and 409 nM
[48]
  GI50: 236 nM
  TGI: 581 nM
[49]
  GI50: 480 nM and 722 nM
  TGI: 6150 nM and 6130 nM
[50]
  GI50: 388 nM and 181 nM
  TGI: 1080 nM and 905 nM
[51]
  GI50: 513 nM and 464 nM
  TGI: 1270 nM and 4990 nM
[52]
  GI50: 354 nM and 342 nM
  TGI: 837 nM and 1510 nM
[53]
  GI50: 113 nM and 145 nM
  TGI: 1750 nM and 545 nM
[54]
  GI50: 75.9 nM and 55.3 nM
  TGI: 358 nM and 254 nM
[55]
  GI50: 3370 nM
  TGI: 11000 nM
[56]
  GI50: 405 nM and 280 nM
  TGI: 796 nM and 744 nM
[57]
  GI50: 631 nM and 696 nM
  TGI: 25000 nM and 7830 nM
[58]
  GI50: 258 nM and 252 nM
[59]
  GI50: 474 nM and 270 nM
  TGI: 1730 nM and 1050 nM

— PubChem BioAssay (NCI)
